Results on eleven compounds are retold here after patent publication US10227324B2 (Shanghai Haiyan Pharmaceutical Technology Co., Ltd., priority 2014, dated 2019).

Read-outs that look alike come from different tables or passages of the source.

One experiment concerns NIH3T3 cells. Nature of the experiment: Cytotoxicity by MTT assay, NIH3T3. Conditions: Mus musculus, NIH3T3, 72 h, cytotoxicity class, read-out: NIH3T3 cell (IC50/nM). It is filed as cell-based. How it is done:
The MTT assay procedure and steps were carried out as well known to those skilled in the art, and all the reagents used in the methods were commercially available.
The cells in logarithmic growth phase were digested with 0.25% EDTA trypsin (Gibco, 25200-056) and resuspended in fresh medium. 90 μL of the cell suspension was inoculated into a 96-well cell culture plate (BD Faclon 353072) with a suitable cell density and cultured at 37° C. under 5% CO2. After the cells adhered, 10 μL of the test compound at different concentrations (0.0046-10 μM, 8 concentration points) was added and incubated for another 72 h. 10 μL of MTT (5 mg/mL PBS solution) (Sigma, M5655) was added to react for 4 h. The absorbance at 492 nm was measured by using Thermo Scientific Multiskan MK3 microplate reader and IC50 was calculated using XLFIT 5.0 software (UK IDBS).

Experiment [1] has as its target T1, PI3K-α kinase (p110α/p85α) (Homo sapiens, UniProt P42336).
T1 construct: purchased Invitrogen PV4788
Nature of the experiment: Determination of PI3K kinase activity (ADP Transcreener, fluorescence polarization). It is filed as biochemical. To be noted: ATP 10 μM. How it is done:
(§1) The inhibition of PI3K kinase activity by the compound to be tested was determined by the following method. The working concentration of each component in the 25 μL enzyme reaction system was: p110α/p85α 3 ng (or p110β/p85α 60 ng, or p110δ/p85α 90 ng, or p110γ 100 ng), ATP 10 μM, PIP2: PS (Invitrogen PV5100) 30 μM and the DMSO concentration was 2% after addition of the compound to be tested.
(§2) At the time of the test, the compound to be tested was dissolved in dimethylsulfoxide (DMSO) according to the desired concentration of the experiment. The compound to be tested was gradiently diluted 3 times (0.00046-1 μM, 8 concentration points) with 10% DMSO. 5 μL of the compound to be tested was added to each well of a 96-well plate (Greiner 675076) in duplicate. […] 10 μL of ATP/PIP2: PS and 10 μL of the PI3K enzyme working solution were added to each well in a 96-well plate. The plate was shaken and mixed uniformly, and then incubated at 25° C. for 1 hour. At the same time, ADP and ATP (0.01 μM, 0.02 μM, 0.04 μM, 0.06 μM, 0.08 μM[…], 0.1 μM, 0.25 μM, 0.5 μM, 1 μM, 2 μM, 5 μM, 10 μM, 12 concentration points) were diluted with buffer to set the standard curve. After completion of the enzyme reaction, 25 μL of ADP assay solution (1% 100×ADP tracer, 0.79% ADP antibody and 10% 10× reaction stop solution) was added and incubated at 25° C. for 1 hour. Fluorescence polarization value [mP] of each well was measured with a Perkin Elmer Victor X5 Fluorescent Microplate. The ADP concentration [ADP] was calculated from the ADP/ATP standard curve and the IC50 values were calculated using the XLFit software.
(Fluorescence polarisation rises when a labelled molecule tumbles more slowly, as on binding a larger partner.)

The target of another experiment is T2, PI3K-γ kinase (p110γ) (Homo sapiens, UniProt P48736).
T2 construct: purchased Invitrogen PV4786
The description is as above. The experiment is classed as biochemical. Conditions: Table 1; ATP 10 μM; read-out: PI3K-γ/nM (IC50 of inhibitory activity against PI3K kinase). How it is done: The PI3K kinase used in the experiment: p110α/p85α (Invitrogen PV4788), p110β/p85α (Millipore 14-603), p110δ/p85α (Millipore 14-604M), and p110γ (Invitrogen PV4786).
as §1
as §2, with “duplicate. 2.5× buffer was prepared and 1 μL of DTT (Millipore 20-265) was added to each 800 μL of 2.5× buffer.” for “duplicate.”

For experiment [2], the target named is T3, PI3K-δ kinase (p110δ/p85α) (Homo sapiens, UniProt O00329).
T3 construct: purchased Millipore 14-604M
Described as above. The experiment is classed as biochemical. Conditions: Table 1; ATP 10 μM; read-out: PI3K-δ/nM (IC50 of inhibitory activity against PI3K kinase). The procedure:
as §1, §2

Experiment [3] addresses T4, PI3K-β kinase (p110β/p85α) (Homo sapiens, UniProt P42338).
T4 construct: purchased Millipore 14-603
Described as above. The experiment is classed as biochemical. Conditions: Table 1; ATP 10 μM; read-out: PI3K-β/nM (IC50 of inhibitory activity against PI3K kinase). The procedure: as §1, §2

Setting [4] is: Table 2, read-out: PI3K-α/nM (IC50 of inhibitory activity against PI3K-α kinase).
Setting [5] is: Table 1, read-out: PI3K-α/nM (IC50 of inhibitory activity against PI3K kinase).

T4 sequence (P42338 whole entry): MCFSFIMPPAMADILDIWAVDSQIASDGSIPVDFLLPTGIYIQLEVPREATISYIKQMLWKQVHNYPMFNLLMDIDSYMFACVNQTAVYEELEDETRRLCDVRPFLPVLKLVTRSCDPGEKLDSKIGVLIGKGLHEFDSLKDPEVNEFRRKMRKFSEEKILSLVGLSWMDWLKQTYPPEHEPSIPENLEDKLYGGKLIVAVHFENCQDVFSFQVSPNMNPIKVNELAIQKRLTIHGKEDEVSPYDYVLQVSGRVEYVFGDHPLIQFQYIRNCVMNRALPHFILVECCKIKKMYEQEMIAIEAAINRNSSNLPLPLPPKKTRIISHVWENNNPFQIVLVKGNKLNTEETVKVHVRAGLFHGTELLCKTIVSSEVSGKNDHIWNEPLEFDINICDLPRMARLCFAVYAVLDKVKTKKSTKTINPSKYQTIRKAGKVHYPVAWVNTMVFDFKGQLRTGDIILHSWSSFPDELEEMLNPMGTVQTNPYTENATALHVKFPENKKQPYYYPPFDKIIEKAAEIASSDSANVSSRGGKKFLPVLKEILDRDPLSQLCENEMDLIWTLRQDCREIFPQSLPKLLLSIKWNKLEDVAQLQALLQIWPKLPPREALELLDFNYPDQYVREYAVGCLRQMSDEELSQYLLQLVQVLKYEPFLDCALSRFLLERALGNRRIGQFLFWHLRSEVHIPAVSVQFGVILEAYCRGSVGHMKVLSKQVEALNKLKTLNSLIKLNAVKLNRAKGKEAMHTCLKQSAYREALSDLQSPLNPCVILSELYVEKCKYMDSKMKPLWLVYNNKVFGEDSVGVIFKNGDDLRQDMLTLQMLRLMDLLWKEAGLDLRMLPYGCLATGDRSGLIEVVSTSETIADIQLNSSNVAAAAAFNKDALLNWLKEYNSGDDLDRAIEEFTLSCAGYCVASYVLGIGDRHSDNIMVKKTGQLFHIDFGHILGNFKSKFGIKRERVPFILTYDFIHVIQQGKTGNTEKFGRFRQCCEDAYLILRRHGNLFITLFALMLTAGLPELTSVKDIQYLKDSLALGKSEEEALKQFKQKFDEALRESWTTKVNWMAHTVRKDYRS
T4 sequence (P27986 whole entry partner): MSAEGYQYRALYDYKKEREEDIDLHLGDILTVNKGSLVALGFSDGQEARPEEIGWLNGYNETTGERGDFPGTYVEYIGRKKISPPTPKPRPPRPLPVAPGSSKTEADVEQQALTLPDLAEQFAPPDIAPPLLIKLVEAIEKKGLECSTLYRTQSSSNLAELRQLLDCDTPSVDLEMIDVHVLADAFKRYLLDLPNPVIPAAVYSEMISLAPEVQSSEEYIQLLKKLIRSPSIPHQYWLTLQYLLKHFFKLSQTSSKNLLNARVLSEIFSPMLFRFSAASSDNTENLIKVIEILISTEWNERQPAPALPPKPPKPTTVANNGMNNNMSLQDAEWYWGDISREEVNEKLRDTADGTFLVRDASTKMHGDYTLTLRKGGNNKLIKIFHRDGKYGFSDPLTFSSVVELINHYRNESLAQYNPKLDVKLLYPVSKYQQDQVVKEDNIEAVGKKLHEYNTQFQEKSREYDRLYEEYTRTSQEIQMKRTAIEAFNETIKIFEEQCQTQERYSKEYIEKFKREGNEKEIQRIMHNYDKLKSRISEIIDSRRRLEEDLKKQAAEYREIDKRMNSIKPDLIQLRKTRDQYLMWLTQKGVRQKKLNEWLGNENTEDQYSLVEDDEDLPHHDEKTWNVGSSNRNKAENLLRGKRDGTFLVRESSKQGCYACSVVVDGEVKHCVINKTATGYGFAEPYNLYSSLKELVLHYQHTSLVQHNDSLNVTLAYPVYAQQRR
T3 sequence (O00329 whole entry): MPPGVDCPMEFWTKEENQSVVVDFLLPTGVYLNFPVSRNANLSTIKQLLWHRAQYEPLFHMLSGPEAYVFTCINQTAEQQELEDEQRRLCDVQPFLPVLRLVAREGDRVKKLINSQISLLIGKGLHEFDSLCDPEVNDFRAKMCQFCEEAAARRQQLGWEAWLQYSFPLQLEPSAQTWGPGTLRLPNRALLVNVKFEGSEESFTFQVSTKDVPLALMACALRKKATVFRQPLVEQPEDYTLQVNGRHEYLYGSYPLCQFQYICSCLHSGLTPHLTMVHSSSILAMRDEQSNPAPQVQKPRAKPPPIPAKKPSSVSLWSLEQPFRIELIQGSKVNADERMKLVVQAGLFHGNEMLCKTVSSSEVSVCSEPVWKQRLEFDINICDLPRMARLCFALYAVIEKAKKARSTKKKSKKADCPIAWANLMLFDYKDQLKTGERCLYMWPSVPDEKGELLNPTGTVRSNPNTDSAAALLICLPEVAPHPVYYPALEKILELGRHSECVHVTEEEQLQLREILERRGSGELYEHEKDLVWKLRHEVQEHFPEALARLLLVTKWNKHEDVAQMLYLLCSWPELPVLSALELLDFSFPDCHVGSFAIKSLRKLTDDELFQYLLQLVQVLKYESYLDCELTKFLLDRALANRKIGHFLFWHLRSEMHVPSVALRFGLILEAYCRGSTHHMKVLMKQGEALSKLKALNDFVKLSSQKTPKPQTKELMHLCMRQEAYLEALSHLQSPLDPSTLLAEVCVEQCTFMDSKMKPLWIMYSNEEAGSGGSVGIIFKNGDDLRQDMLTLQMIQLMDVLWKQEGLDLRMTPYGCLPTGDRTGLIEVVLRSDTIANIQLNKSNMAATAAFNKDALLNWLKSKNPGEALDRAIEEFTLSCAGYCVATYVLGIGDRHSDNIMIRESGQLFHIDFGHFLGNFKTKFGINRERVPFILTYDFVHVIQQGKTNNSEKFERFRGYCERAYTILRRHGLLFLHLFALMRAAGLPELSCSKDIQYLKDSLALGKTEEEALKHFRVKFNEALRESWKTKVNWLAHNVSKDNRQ
T3 sequence (P27986 whole entry partner): as the sequence (P27986 whole entry partner) above
T2 sequence (P48736 whole entry): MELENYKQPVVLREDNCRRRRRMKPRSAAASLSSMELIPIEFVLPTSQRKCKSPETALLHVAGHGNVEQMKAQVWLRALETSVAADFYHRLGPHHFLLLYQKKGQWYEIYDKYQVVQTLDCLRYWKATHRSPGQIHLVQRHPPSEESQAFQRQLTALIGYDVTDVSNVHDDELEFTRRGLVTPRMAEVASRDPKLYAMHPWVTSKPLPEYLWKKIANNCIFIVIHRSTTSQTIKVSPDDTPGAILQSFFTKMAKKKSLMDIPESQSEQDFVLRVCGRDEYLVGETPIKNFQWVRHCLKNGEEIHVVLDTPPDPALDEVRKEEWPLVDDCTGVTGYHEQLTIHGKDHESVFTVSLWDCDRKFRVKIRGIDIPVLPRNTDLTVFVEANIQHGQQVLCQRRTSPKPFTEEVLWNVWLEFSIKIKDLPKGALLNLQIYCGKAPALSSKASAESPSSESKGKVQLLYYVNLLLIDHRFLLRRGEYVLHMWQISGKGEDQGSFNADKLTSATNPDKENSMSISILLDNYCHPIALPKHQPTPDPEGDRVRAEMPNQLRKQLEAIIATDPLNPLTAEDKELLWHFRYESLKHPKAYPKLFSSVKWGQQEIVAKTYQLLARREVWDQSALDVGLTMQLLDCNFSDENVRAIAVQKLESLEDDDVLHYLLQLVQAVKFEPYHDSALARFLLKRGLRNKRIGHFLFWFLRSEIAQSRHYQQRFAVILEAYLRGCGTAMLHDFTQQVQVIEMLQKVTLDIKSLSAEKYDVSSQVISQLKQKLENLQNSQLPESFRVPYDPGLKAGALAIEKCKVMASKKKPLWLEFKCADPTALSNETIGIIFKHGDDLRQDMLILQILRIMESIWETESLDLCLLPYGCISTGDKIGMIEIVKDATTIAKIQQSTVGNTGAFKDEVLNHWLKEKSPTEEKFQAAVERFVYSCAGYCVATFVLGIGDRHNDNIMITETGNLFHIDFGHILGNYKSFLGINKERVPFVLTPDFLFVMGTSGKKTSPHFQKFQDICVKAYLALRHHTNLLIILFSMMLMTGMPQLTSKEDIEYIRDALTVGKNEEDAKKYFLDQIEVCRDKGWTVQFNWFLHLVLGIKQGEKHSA
T1 sequence (P42336 whole entry): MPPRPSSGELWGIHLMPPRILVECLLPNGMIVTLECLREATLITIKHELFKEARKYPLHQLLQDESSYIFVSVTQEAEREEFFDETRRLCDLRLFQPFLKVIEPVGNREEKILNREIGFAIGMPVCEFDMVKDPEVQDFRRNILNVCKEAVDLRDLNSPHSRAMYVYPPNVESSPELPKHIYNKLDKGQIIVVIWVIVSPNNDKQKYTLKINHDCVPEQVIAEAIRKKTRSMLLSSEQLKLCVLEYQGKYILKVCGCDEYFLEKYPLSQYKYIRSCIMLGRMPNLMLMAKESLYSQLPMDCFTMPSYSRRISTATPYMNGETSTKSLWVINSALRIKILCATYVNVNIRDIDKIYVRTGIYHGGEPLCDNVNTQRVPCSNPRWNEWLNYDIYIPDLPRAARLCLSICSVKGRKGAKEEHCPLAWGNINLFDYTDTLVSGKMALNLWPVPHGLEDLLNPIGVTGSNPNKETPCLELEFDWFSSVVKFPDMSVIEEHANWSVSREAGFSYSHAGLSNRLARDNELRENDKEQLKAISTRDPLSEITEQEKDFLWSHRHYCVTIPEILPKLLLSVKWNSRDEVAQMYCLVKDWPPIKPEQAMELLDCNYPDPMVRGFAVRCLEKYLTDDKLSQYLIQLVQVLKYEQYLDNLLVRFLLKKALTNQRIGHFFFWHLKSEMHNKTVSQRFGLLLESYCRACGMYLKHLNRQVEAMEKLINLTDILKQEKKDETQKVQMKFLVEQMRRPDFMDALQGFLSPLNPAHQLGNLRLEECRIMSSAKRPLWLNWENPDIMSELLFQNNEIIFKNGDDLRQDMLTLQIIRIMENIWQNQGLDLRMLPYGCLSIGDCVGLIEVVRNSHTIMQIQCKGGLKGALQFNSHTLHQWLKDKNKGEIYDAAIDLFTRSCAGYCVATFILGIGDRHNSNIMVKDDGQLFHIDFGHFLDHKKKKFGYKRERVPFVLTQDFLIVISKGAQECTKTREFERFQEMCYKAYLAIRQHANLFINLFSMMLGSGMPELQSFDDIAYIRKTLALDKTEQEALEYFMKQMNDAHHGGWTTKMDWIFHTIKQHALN
T1 sequence (P27986 whole entry partner): as the sequence (P27986 whole entry partner) above

On to `CNc1cc(C(F)(F)F)c(-c2cc(C3(S(C)(=O)=O)CC3)nc(N3CCOCC3)n2)cn1` [Compound S-36], for which, in the experiment on NIH3T3 cells, the IC50 fell in the range of 3000 to 5000 nM.

For `Nc1cc(C(F)(F)F)c(-c2cc(C3(C(=O)N4CCCCC4)CC3)nc(N3CCOCC3)n2)cn1` [Compound S-7], the IC50 in the experiment with NIH3T3 cells was above 10000 nM.

For the compound `C[C@H]1COCCN1c1nc(-c2cnc(N)cc2C(F)(F)F)cc(C2(S(=O)(=O)c3ccccc3)CCC2)n1` [Compound S-15], the IC50 in the experiment with NIH3T3 cells was in the range of 5000 to 10000 nM.

As for `CC(=O)NC1(c2cc(-c3cnc(N)cc3C(F)(F)F)nc(N3CCOCC3)n2)CC1` [Compound S-26, N-(1-(6-(6-amino-4-(trifluoromethyl)pyridin-3-yl)-2-morpholinopyrimidin-4-yl)cyclopropyl)acetamide], the IC50 with NIH3T3 cells was above 10000 nM; in experiment [1] (setting [4]) it was 390 nM.

`Nc1cc(C(F)(F)F)c(-c2cc(C3(C(=O)N4CCOCC4)CC3)nc(N3CCOCC3)n2)cn1` [Compound S-3, (1-(6-(6-amino-4-(trifluoromethyl)pyridin-3-yl)-2-morpholinopyrimidin-4-yl)cyclopropyl)(morpholino)ketone]: the IC50 in the experiment on NIH3T3 cells was above 10000 nM; in experiment [1] (setting [4]), 280 nM.

On to `CCS(=O)(=O)C(C)(C)c1cc(-c2cnc(N)cc2C(F)(F)F)nc(N2CCOCC2)n1` [Compound S-29], for which the IC50 on PI3K-γ kinase (p110γ) is 256 nM; in the experiment with NIH3T3 cells it was 1000 to 3000 nM; in experiment [2], 612 nM; in experiment [3], 1740 nM.

Regarding `CC(C)(c1cc(-c2cnc(N)cc2C(F)(F)F)nc(N2CCOCC2)n1)n1ncc2ccccc21` [Compound S-56, 5-(6-(2-(1H-indazol-1-yl)propan-2-yl)-2-morpholinopyrimidin-4-yl)-4-(trifluoromethyl)pyridin-2-amine], the IC50 in the experiment on NIH3T3 cells is above 10000 nM.

Take `CS(=O)(=O)C1(c2cc(-c3cnc(N)c(C(F)(F)F)c3)nc(N3CCOCC3)n2)CC1` [Compound S-44, 5-(6-(1-(methylsulfonyl)cyclopropyl)-2-morpholinopyrimidin-4-yl)-3-(trifluoromethyl)pyridin-2-amine]: the IC50 in the experiment with NIH3T3 cells was 1000 to 3000 nM; in experiment [1] (setting [4]), 858 nM.

Regarding `CCOC(=O)C1(c2cc(-c3cnc(N)cc3C(F)(F)F)nc(N3CCOCC3)n2)CC1` [Compound S-2], the results for the IC50 (with NIH3T3 cells; in experiment [1] (setting [4])) were 5000 to 10000 nM and 550 nM, respectively.

Take `CC(C)S(=O)(=O)C(C)(C)c1cc(-c2cnc(N)cc2C(F)(F)F)nc(N2CCOCC2)n1` [Compound S-22]: the IC50 was 2120 nM on PI3K-γ kinase (p110γ); 1000 to 3000 nM in the experiment with NIH3T3 cells; 55 nM in experiment [1] (setting [5]); 491 nM in experiment [2]; 1540 nM in experiment [3].

Turning to `CS(=O)(=O)C(F)c1cc(-c2cnc(N)cc2C(F)(F)F)nc(N2CCOCC2)n1` (centres unmarked) [Compound S-52, 5-(6-(fluoro(methylsulfonyl)methyl)-2-morpholinopyrimidin-4-yl)-4-(trifluoromethyl)pyridin-2-amine], the IC50 at PI3K-γ kinase (p110γ) was 914 nM; in the experiment with NIH3T3 cells, 3000 to 5000 nM; in experiment [1] (setting [5]), 18 nM; in experiment [2] it was 336 nM; in experiment [3], 2780 nM.
